{"source": "patent US10858352B2", "about": "“Pharmaceutical compounds” (Heptares Therapeutics Limited, priority 2018, dated 2020)", "type_in_all_cases": "cell-based", "key": {"[1]": {"biological_target": "T1, human muscarinic M2 receptor (Homo sapiens, UniProt P08172)", "T1 sequence (P08172 1-466)": "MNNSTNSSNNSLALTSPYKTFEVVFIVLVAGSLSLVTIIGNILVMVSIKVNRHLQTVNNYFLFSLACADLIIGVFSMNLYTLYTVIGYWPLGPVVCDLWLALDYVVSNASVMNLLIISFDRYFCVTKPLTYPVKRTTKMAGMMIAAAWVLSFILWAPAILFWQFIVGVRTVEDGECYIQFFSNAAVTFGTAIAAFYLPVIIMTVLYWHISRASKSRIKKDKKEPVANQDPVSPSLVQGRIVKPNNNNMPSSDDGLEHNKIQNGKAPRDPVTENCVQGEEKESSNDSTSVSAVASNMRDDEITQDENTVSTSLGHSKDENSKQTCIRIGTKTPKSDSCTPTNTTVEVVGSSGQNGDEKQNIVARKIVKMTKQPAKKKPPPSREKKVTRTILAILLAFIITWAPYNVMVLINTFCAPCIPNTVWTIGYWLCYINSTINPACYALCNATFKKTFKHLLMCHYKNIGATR", "test": "Alphascreen Surefire phospho-ERK1/2 functional assay, M2", "settings": "CHO cells stably expressing human M2; for % Emax cf. ACh (M2): Emax relative to ACh; for pEC50 M2: agonist 5 min, 37° C.", "summary_of_the_method": "(§1)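 CHO cells stably expressing human M1, M2, M3 or M4 receptor, serum-starved overnight, then stimulated with agonist for 5 min at 37 °C. Cells lysed for 15 min and phospho-ERK1/2 detected in the lysate by AlphaScreen SureFire.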"}, "[2]": {"biological_target": "T2, human muscarinic M1 receptor (Homo sapiens, UniProt P11229)", "T2 sequence (P11229 1-460)": "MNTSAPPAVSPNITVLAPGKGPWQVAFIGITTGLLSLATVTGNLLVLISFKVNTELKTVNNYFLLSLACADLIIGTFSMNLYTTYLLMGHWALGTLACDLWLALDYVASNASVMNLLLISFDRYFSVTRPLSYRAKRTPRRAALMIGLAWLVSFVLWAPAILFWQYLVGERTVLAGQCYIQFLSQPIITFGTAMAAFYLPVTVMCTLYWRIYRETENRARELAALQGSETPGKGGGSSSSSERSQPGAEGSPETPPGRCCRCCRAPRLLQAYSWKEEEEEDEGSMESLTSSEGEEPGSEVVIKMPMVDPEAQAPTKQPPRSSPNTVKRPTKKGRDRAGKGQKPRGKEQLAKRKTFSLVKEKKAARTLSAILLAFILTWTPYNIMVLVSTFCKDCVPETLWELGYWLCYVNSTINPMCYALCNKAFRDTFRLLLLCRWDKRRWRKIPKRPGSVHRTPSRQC", "test": "Alphascreen Surefire phospho-ERK1/2 functional assay, M1", "settings": "CHO cells stably expressing human M1; for % Emax cf. ACh (M1): Emax relative to ACh; for pEC50 M1: agonist 5 min, 37° C.", "summary_of_the_method": "as §1"}, "[3]": {"biological_target": "T3, human muscarinic M3 receptor (Homo sapiens, UniProt P20309)", "T3 construct": "expressed in transfected cells", "T3 sequence (P20309 whole entry)": "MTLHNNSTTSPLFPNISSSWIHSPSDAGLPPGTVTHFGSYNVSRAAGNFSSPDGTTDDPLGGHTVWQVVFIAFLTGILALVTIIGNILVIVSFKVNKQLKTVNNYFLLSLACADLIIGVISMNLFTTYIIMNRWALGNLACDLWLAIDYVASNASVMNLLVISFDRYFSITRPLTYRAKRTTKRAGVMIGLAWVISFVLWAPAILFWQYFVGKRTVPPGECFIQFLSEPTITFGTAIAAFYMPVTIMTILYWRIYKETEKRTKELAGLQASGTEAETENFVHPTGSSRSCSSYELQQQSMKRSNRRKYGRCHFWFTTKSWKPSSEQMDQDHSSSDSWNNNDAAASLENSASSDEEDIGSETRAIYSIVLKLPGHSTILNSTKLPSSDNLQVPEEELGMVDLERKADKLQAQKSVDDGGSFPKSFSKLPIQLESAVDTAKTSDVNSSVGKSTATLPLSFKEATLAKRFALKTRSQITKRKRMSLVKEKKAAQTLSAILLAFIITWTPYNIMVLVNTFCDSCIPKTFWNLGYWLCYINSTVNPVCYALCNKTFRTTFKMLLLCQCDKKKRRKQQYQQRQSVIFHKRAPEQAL", "test": "Alphascreen Surefire phospho-ERK1/2 functional assay, M3", "settings": "CHO cells stably expressing human M3; for % Emax cf. ACh (M3): Emax relative to ACh; for pEC50 M3: agonist 5 min, 37° C.", "summary_of_the_method": "as §1"}, "[4]": {"biological_target": "T4, human muscarinic M4 receptor (Homo sapiens, UniProt P08173)", "T4 construct": "expressed in transfected cells", "T4 sequence (P08173 1-479)": "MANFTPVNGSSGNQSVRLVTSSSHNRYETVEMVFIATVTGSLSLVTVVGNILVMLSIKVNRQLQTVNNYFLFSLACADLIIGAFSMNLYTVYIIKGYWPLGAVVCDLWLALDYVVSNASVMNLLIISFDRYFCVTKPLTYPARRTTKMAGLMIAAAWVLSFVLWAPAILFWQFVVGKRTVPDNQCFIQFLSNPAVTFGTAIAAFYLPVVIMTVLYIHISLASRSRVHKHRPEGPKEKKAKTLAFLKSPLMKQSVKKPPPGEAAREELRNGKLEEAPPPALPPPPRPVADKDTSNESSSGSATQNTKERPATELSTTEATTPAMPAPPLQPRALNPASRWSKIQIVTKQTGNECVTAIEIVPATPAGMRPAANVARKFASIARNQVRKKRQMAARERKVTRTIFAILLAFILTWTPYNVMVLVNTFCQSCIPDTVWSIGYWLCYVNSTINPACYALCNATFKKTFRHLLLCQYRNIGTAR", "test": "Alphascreen Surefire phospho-ERK1/2 functional assay, M4", "settings": "CHO cells stably expressing human M4; for % Emax cf. ACh (M4): Emax relative to ACh; for pEC50 M4: agonist 5 min, 37° C.", "summary_of_the_method": "as §1"}}}
{"smiles": "CCN(CC)C(=O)[C@H]1[C@@H]2CN(C3CC4COCC(C3)N4c3nc(C(F)(F)F)no3)C[C@@H]21", "note": "(single isomer, unassigned; isomer 2) [12-23 Isomer 2]", "values": [{"measurement": "% Emax cf. ACh (M2)", "setting": "[1]", "result": "(13) %"}, {"measurement": "pEC50 M2", "setting": "[1]", "result": "<4.70"}, {"measurement": "% Emax cf. ACh (M1)", "setting": "[2]", "result": "(132) %"}, {"measurement": "pEC50 M1", "setting": "[2]", "result": 7.59}, {"measurement": "% Emax cf. ACh (M3)", "setting": "[3]", "result": "(25) %"}, {"measurement": "pEC50 M3", "setting": "[3]", "result": "<4.70"}, {"measurement": "% Emax cf. ACh (M4)", "setting": "[4]", "result": "(30) %"}, {"measurement": "pEC50 M4", "setting": "[4]", "result": 6.92}]}
{"smiles": "CCN(C)C(=O)[C@H]1[C@@H]2CN(C3CC4CCC(C3)N4c3nc(C)no3)C[C@@H]21", "note": "(single isomer, unassigned; isomer 2) [12-24 Isomer 2]", "values": [{"measurement": "% Emax cf. ACh (M2)", "setting": "[1]", "result": "(60) %"}, {"measurement": "pEC50 M2", "setting": "[1]", "result": 5.33}, {"measurement": "% Emax cf. ACh (M1)", "setting": "[2]", "result": "(102) %"}, {"measurement": "pEC50 M1", "setting": "[2]", "result": 7.58}, {"measurement": "% Emax cf. ACh (M3)", "setting": "[3]", "result": "(25) %"}, {"measurement": "pEC50 M3", "setting": "[3]", "result": "<4.70"}, {"measurement": "% Emax cf. ACh (M4)", "setting": "[4]", "result": "(83) %"}, {"measurement": "pEC50 M4", "setting": "[4]", "result": 6.02}]}
{"smiles": "CCN(CC)C(=O)[C@H]1[C@@H]2CN(C3CC4CCC(C3)N4c3nc(C)no3)C[C@@H]21", "note": "(single isomer, unassigned; isomer 2) [12-25 Isomer 2]", "values": [{"measurement": "% Emax cf. ACh (M2)", "setting": "[1]", "result": "(84) %"}, {"measurement": "pEC50 M2", "setting": "[1]", "result": 6.15}, {"measurement": "% Emax cf. ACh (M1)", "setting": "[2]", "result": "(91) %"}, {"measurement": "pEC50 M1", "setting": "[2]", "result": 8.55}, {"measurement": "% Emax cf. ACh (M3)", "setting": "[3]", "result": "(57) %"}, {"measurement": "pEC50 M3", "setting": "[3]", "result": 5.29}, {"measurement": "% Emax cf. ACh (M4)", "setting": "[4]", "result": "(119) %"}, {"measurement": "pEC50 M4", "setting": "[4]", "result": 6.82}]}
